Measured values as given in patent US20050238685A1, “Method of binding a compound to a surface” (priority 2002, published 2005).
One block for each substance: values may come before it.

Experiments:
[1] = Cholesterol oxidase immobilized on hydrophobin-coated glassy carbon electrode, current response to cholesterol; format: biochemical; conditions: phosphate buffer pH 7
From the text: To overcome the poor solubility of cholesterol in water, the cholesterol was solubilized in isopropanol with Triton in phosphate buffer (Ropers, M.-H. et al., 2001, Phys. Chem. Chem. Phys. 3:240-245).

[2] = hydrophobin-coated glassy carbon electrode, phosphate buffer pH 7
Experimental: Glassy carbon electrode was coated with hydrophobin by placing the electrode in a solution of hydrophobin (100 μg/ml) and incubating for 15 minutes, after which the electrode was thoroughly rinsed with water.
The electrode, modified and functionalized with the enzyme, was placed in a three electrode system, including an Ag/AgCl reference electrode and a Pt counter electrode, using phosphate buffer pH 7 (25 mM).
The modified electrode was stored in a sealed container, not in liquid, at 4° C., and tested frequently for activity and response to glucose.

[3] = Glucose oxidase and peroxidase immobilized on hydrophobin-coated TEFLON sheets, o-dianisidine colour assay at 435 nm; format: biochemical; conditions: hydrophobin-coated TEFLON sheet (SC3, trSC3, SC4), partner enzyme in solution
Experimental: The coating was achieved by incubating the TEFLON™ at 25° C. in 2 ml of a 100 μg/ml hydrophobin solution (here SC3, trSC3 and SC4 were used in separate experiments) in a 3 ml glass vial for 15 minutes. The sheets were removed from the hydrophobin solution and were washed with large amounts of water to remove any unbound hydrophobin.
Both sheets were placed in a container containing o-dianisidine and, upon addition of glucose, the solution became colored.
The functionalized TEFLON™ is still active after storage for several weeks at 4° C.

[4] = Different enzymes immobilized via SC3 hydrophobin on TEFLON, spectrophotometry at 412 and 435 nm; format: biochemical; conditions: SC3-coated TEFLON
Experimental: The surface was first coated with SC3 hydrophobin by immersion in the protein aqueous solution (0.3 mg/mL) during approximately 30 minutes. The obtained modified surface was then immersed in an aqueous enzyme solution during approximately 30 minutes. After each step, the TEFLON™ surface was rinsed with an adequate buffer solution. Activity of the immobilized enzymes was followed by spectrophotometry at 412 and 435 nm after immersion of the functionalized surface in the corresponding substrate solution. The optical density of the solution increases after the immersion of the functionalized surface and stays constant after its removal. […] The functionalized TEFLON® was stored at 4° C. in an Eppendorf tube containing a buffer solution.
(Biocatalysts, Wales; final concentration 2.1 mg/mL), lipase from Candida cylindracea (Biocatalysts, Wales; final concentration 0.25 mg/mL), porcine liver esterase (SIGMA; 41 U/mg of solid, final concentration 2.4 mg/mL), bovine pancreas trypsin (SIGMA; 8,750 U/mg of solid).

activity of enzyme attached to bare wells: not active
Substance: firefly luciferase: firefly luciferase (Roche, cat no. 411523)

activity of immobilized cholesterol oxidase [1]: remaining active
Substance: cholesterol oxidase

Substance: glucose oxidase
activity of glucose oxidase upon immobilization on the hydrophobin layer [2]: remained active | activity of immobilized enzyme (oxidation of o-dianisidine upon addition of glucose) [3]: absorption at 435 nm was observed

activity of immobilized enzyme (oxidation of o-dianisidine upon addition of glucose) [3]: Coloring of the solution
Substance: peroxidase: horseradish peroxidase (SIGMA)
state of immobilized enzymes (denaturation, desorption) [4]: not denatured and are not desorbed from the surface | function after storage ([4]; 4° C. in buffer solution): still functional after several weeks
